Experimental data: PubChem BioAssay (NCI)
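96-well plates; 48 h exposure; 5 concentrations. Endpoints by linear interpolation between flanking doses. Not reached: highest tested concentration assigned. Abbreviation: GI50, concentration required for 50% inhibition of growth. The concentration for full growth arrest is given as TGI.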

Legend:
Test in all cases: NCI-60 cell line screen, 48 h
SNB-19 CNS = system: SNB-19 CNS
M14 melanoma = system: M14 melanoma
SK-OV-3 ovarian = system: SK-OV-3 ovarian
SF-539 CNS = system: SF-539 CNS
CAKI-1 renal = system: CAKI-1 renal
MDA-MB-231 breast = system: MDA-MB-231 breast
NCI/ADR-RES ovarian = system: NCI/ADR-RES ovarian
HS 578T breast = system: HS 578T breast
SR leukemia = system: SR leukemia
UO-31 renal = system: UO-31 renal
K-562 leukemia = system: K-562 leukemia
LOX IMVI melanoma = system: LOX IMVI melanoma
UACC-257 melanoma = system: UACC-257 melanoma
HOP-92 NSCLC = system: HOP-92 NSCLC
SW-620 colon = system: SW-620 colon
ACHN renal = system: ACHN renal
SF-268 CNS = system: SF-268 CNS
UACC-62 melanoma = system: UACC-62 melanoma
PC-3 prostate = system: PC-3 prostate
SK-MEL-5 melanoma = system: SK-MEL-5 melanoma
SNB-75 CNS = system: SNB-75 CNS
BT-549 breast = system: BT-549 breast
HOP-62 NSCLC = system: HOP-62 NSCLC
SK-MEL-2 melanoma = system: SK-MEL-2 melanoma
COLO 205 colon = system: COLO 205 colon
HL-60(TB) leukemia = system: HL-60(TB) leukemia
IGROV1 ovarian = system: IGROV1 ovarian
NCI-H460 lung = system: NCI-H460 lung
MCF7 breast = system: MCF7 breast
MOLT-4 leukemia = system: MOLT-4 leukemia
OVCAR-8 ovarian = system: OVCAR-8 ovarian
DU-145 prostate = system: DU-145 prostate
EKVX NSCLC = system: EKVX NSCLC
NCI-H522 lung = system: NCI-H522 lung
HT29 colon = system: HT29 colon
RPMI-8226 leukemia = system: RPMI-8226 leukemia
CCRF-CEM leukemia = system: CCRF-CEM leukemia
NCI-H226 lung = system: NCI-H226 lung
SN12C renal = system: SN12C renal
OVCAR-4 ovarian = system: OVCAR-4 ovarian
A498 renal = system: A498 renal
HCT-15 colon = system: HCT-15 colon
SK-MEL-28 melanoma = system: SK-MEL-28 melanoma
NCI-H23 lung = system: NCI-H23 lung
OVCAR-5 ovarian = system: OVCAR-5 ovarian
U251 CNS = system: U251 CNS
OVCAR-3 ovarian = system: OVCAR-3 ovarian
A549 NSCLC = system: A549 NSCLC
TK-10 renal = system: TK-10 renal
KM12 colon = system: KM12 colon
SF-295 CNS = system: SF-295 CNS
HCT-116 colon = system: HCT-116 colon
786-0 renal = system: 786-0 renal
HCC-2998 colon = system: HCC-2998 colon

In the case of `COC(=O)Nc1nc2ccc(C(=O)c3ccc(N(C)C4COC4)cc3)cc2[nH]1`, the GI50 (SNB-19 CNS) is reported as 435 nM, the TGI (SNB-19 CNS) is reported as greater than 100000 nM and the GI50 (M14 melanoma) is reported as 279 nM. The TGI (M14 melanoma) was greater than 100000 nM, the GI50 (SK-OV-3 ovarian) was 536 nM and the TGI (SK-OV-3 ovarian) was greater than 100000 nM. It also gave a GI50 (SF-539 CNS) of 264 nM, a TGI (SF-539 CNS) of 1160 nM and a GI50 (CAKI-1 renal) of 435 nM. For the same compound, the TGI (CAKI-1 renal) was greater than 100000 nM, the GI50 (MDA-MB-231 breast) was 608 nM and the TGI (MDA-MB-231 breast) was greater than 100000 nM. It also gave a GI50 (NCI/ADR-RES ovarian) of 362 nM, a TGI (NCI/ADR-RES ovarian) greater than 100000 nM and a GI50 (HS 578T breast) of 358 nM. The TGI (HS 578T breast) was greater than 100000 nM, the GI50 (SR leukemia) was 188 nM and the TGI (SR leukemia) was greater than 100000 nM. The GI50 (UO-31 renal) was 883 nM, the TGI (UO-31 renal) was greater than 100000 nM and the GI50 (K-562 leukemia) was 333 nM. It also gave a TGI (K-562 leukemia) greater than 100000 nM, a GI50 (LOX IMVI melanoma) of 761 nM and a TGI (LOX IMVI melanoma) greater than 100000 nM. It also gave a GI50 (UACC-257 melanoma) greater than 100000 nM, a TGI (UACC-257 melanoma) greater than 100000 nM and a GI50 (HOP-92 NSCLC) of 620 nM. For the same compound, the TGI (HOP-92 NSCLC) was 45900 nM, the GI50 (SW-620 colon) was 355 nM and the TGI (SW-620 colon) was greater than 100000 nM. It also gave a GI50 (ACHN renal) of 846 nM, a TGI (ACHN renal) greater than 100000 nM and a GI50 (SF-268 CNS) of 745 nM. For the same compound, the TGI (SF-268 CNS) was greater than 100000 nM, the GI50 (UACC-62 melanoma) was 380 nM and the TGI (UACC-62 melanoma) was greater than 100000 nM. It also gave a GI50 (PC-3 prostate) of 379 nM, a TGI (PC-3 prostate) greater than 100000 nM and a GI50 (SK-MEL-5 melanoma) of 425 nM. The TGI (SK-MEL-5 melanoma) was 3990 nM, the GI50 (SNB-75 CNS) was 227 nM and the TGI (SNB-75 CNS) was greater than 100000 nM. It also gave a GI50 (BT-549 breast) of 2080 nM, a TGI (BT-549 breast) greater than 100000 nM and a GI50 (HOP-62 NSCLC) of 471 nM. The TGI (HOP-62 NSCLC) was greater than 100000 nM, the GI50 (SK-MEL-2 melanoma) was 593 nM and the TGI (SK-MEL-2 melanoma) was greater than 100000 nM. It also gave a GI50 (COLO 205 colon) of 285 nM, a TGI (COLO 205 colon) of 1030 nM and a GI50 (HL-60(TB) leukemia) of 266 nM. It also gave a TGI (HL-60(TB) leukemia) of 2850 nM, a GI50 (IGROV1 ovarian) of 905 nM and a TGI (IGROV1 ovarian) greater than 100000 nM. The GI50 (NCI-H460 lung) was 359 nM, the TGI (NCI-H460 lung) was greater than 100000 nM and the GI50 (MCF7 breast) was 346 nM. For the same compound, the TGI (MCF7 breast) was greater than 100000 nM, the GI50 (MOLT-4 leukemia) was 672 nM and the TGI (MOLT-4 leukemia) was greater than 100000 nM. The GI50 (OVCAR-8 ovarian) was 482 nM, the TGI (OVCAR-8 ovarian) was greater than 100000 nM and the GI50 (DU-145 prostate) was 392 nM. It also gave a TGI (DU-145 prostate) greater than 100000 nM, a GI50 (EKVX NSCLC) of 708 nM and a TGI (EKVX NSCLC) greater than 100000 nM. For the same compound, the GI50 (NCI-H522 lung) was 337 nM, the TGI (NCI-H522 lung) was 4340 nM and the GI50 (HT29 colon) was 340 nM. The TGI (HT29 colon) was greater than 100000 nM, the GI50 (RPMI-8226 leukemia) was 369 nM and the TGI (RPMI-8226 leukemia) was greater than 47500 nM. The GI50 (CCRF-CEM leukemia) was 309 nM, the TGI (CCRF-CEM leukemia) was greater than 100000 nM and the GI50 (NCI-H226 lung) was 1990 nM. It also gave a TGI (NCI-H226 lung) greater than 100000 nM, a GI50 (SN12C renal) of 561 nM and a TGI (SN12C renal) greater than 100000 nM. The GI50 (OVCAR-4 ovarian) was 2850 nM, the TGI (OVCAR-4 ovarian) was greater than 100000 nM and the GI50 (A498 renal) was 413 nM. The TGI (A498 renal) was greater than 100000 nM, the GI50 (HCT-15 colon) was 303 nM and the TGI (HCT-15 colon) was greater than 100000 nM. For the same compound, the GI50 (SK-MEL-28 melanoma) was greater than 100000 nM, the TGI (SK-MEL-28 melanoma) was greater than 100000 nM and the GI50 (NCI-H23 lung) was 713 nM. For the same compound, the TGI (NCI-H23 lung) was greater than 100000 nM, the GI50 (OVCAR-5 ovarian) was 746 nM and the TGI (OVCAR-5 ovarian) was greater than 100000 nM. It also gave a GI50 (U251 CNS) of 397 nM, a TGI (U251 CNS) greater than 100000 nM and a GI50 (OVCAR-3 ovarian) of 375 nM. The TGI (OVCAR-3 ovarian) was greater than 100000 nM, the GI50 (A549 NSCLC) was 655 nM and the TGI (A549 NSCLC) was greater than 100000 nM. It also gave a GI50 (TK-10 renal) of 31300 nM, a TGI (TK-10 renal) greater than 100000 nM and a GI50 (KM12 colon) of 360 nM. It also gave a TGI (KM12 colon) greater than 100000 nM, a GI50 (SF-295 CNS) of 280 nM and a TGI (SF-295 CNS) greater than 100000 nM. For the same compound, the GI50 (HCT-116 colon) was 360 nM, the TGI (HCT-116 colon) was greater than 100000 nM and the GI50 (786-0 renal) was 500 nM. The TGI (786-0 renal) was greater than 100000 nM, the GI50 (HCC-2998 colon) was 716 nM and the TGI (HCC-2998 colon) was greater than 100000 nM.
